# Measured values: patent publication US9492460B2, “Carbazole compounds useful as bromodomain inhibitors” (Bristol-Myers Squibb Company, priority 2013, dated 2016)
# Biological target: T1, bromodomain BRD4 (44-168), BRD4 (333-460), and BRD4 (1-477 or 44-460) (Homo sapiens, UniProt O60885)
# T1 construct: BRD4(44-168), BRD4(333-460), BRD4(44-460), BRD4(1-477), O60885-1; fused on or other part: N-terminal BirA biotinylation motif, biotinylated; The TVMV-cleavable His6 tag is removed, except in some BRD4(44-460) runs detected with anti-His terbium cryptate
# Assay: Time Resolved Fluorescence Resonance Energy Transfer (TR-FRET) binding assay
# Conditions: one of the FRET assays described
row,IC50 [µM],SMILES
1,< 0.05,"Cc1noc(C)c1-c1cc(C(N)=O)c2c3ccc(C(C)(C)O)cc3n(C(c3ccccc3)C3CCOCC3)c2c1 (single isomer, unassigned) [Example 199]"
2,< 7.5,"COC(=O)c1ccc2c3c(C#N)cc(-c4c(C)noc4C)cc3n(Cc3ccccc3)c2c1 [Example 182, Methyl 9-benzyl-5-cyano-7-(3,5-dimethyl-4-isoxazolyl)-9H-carbazole-2-carboxylate]"
3,< 0.05,"Cc1noc(C)c1-c1cc(C(N)=O)c2c3cc(N)ccc3n(Cc3ccccc3)c2c1 [Example 135, 6-amino-9-benzyl-2-(3,5-dimethyl-4-isoxazolyl)-9H-carbazole-4-carboxamide]"
4,< 0.05,"Cc1noc(C)c1-c1cc(C(N)=O)c2c3ccc(C(C)(C)O)cc3n(CC3CCOCC3)c2c1 [Example 197, 2-(3,5-dimethyl-4-isoxazolyl)-7-(1-hydroxy-1-methylethyl)-9-(tetrahydro-2H-pyran-4-ylmethyl)-9H-carbazole-4-carboxamide]"
5,< 0.05,Cc1noc(C)c1-c1cc(C(N)=O)c2c3cc(C(=O)N4CC(F)C4)ccc3n(Cc3ccccc3)c2c1 [Example 65]
6,< 0.05,"CNC(=O)c1cc(-c2c(C)noc2C)cc2c1c1cc(N3CCCOC3=O)ccc1n2Cc1ccccc1 [Example 169, 9-benzyl-2-(3,5-dimethyl-4-isoxazolyl)-N-methyl-6-(2-oxo-1,3-oxazinan-3-yl)-9H-carbazole-4-carboxamide]"
7,< 7.5,"CCNC(=O)c1cc(-c2c(C)noc2C)cc2c1c1cc(N3CCCOC3=O)ccc1n2Cc1ccc(Cl)cc1 [Example 166, 9-(4-chlorobenzyl)-2-(3,5-dimethyl-4-isoxazolyl)-N-ethyl-6-(2-oxo-1,3-oxazinan-3-yl)-9H-carbazole-4-carboxamide]"
8,< 0.5,CNC(=O)c1cc(-c2c(C)noc2C)cc2c1c1cc(C(=O)N3CC(F)C3)ccc1n2C(C)c1ccc(F)cc1 (stereo not drawn) [Example 112]
9,< 0.05,"Cc1noc(C)c1-c1cc(C(N)=O)c2c3cc(N4CCOC4=O)ccc3n(C(C)c3ccccc3)c2c1 (stereo not drawn) [Example 163, 2-(3,5-dimethyl-4-isoxazolyl)-6-(2-oxo-1,3-oxazolidin-3-yl)-9-(1-phenylethyl)-9H-carbazole-4-carboxamide]"
10,< 0.05,"Cc1noc(C)c1-c1cc(C(N)=O)c2c3cc(N4CC(C)(C)COC4=O)ccc3n(Cc3ccccc3)c2c1 [Example 160, 9-benzyl-2-(3,5-dimethyl-4-isoxazolyl)-6-(5,5-dimethyl-2-oxo-1,3-oxazinan-3-yl)-9H-carbazole-4-carboxamide]"
11,< 0.5,"Cc1noc(C)c1-c1cc(C#N)c2c3ccc(C(=O)N4CCOCC4)cc3n(Cc3ccccc3)c2c1 [Example 187, 9-Benzyl-2-(3,5-dimethyl-4-isoxazolyl)-7-(morpholine-4-carbonyl)-9H-carbazole-4-carbonitrile]"
12,< 0.05,Cc1noc(C)c1-c1cc(C(N)=O)c2c3cc(C(=O)N4CC(O)C4)ccc3n(Cc3ccccc3)c2c1 [Example 53]
13,< 0.05,"CNC(=O)c1cc(-c2c(C)noc2C)cc2c1c1cc(C(=O)N3C[C@@H](C)O[C@@H](C)C3)ccc1n2Cc1ccccc1 [Example 117, 9-benzyl-2-(3,5-dimethylisoxazol-4-yl)-6-(cis-2,6-dimethylmorpholine-4-carbonyl)-N-methyl-9H-carbazole-4-carboxamide]"
14,< 0.05,"CNC(=O)c1cc(-c2c(C)noc2C)cc2c1c1cc(N3CCCOC3=O)ccc1n2Cc1ccc(Cl)c(F)c1 [Example 172, 9-(4-chloro-3-fluorobenzyl)-2-(3,5-dimethyl-4-isoxazolyl)-N-methyl-6-(2-oxo-1,3-oxazinan-3-yl)-9H-carbazole-4-carboxamide]"
15,< 0.05,"Cc1noc(C)c1-c1cc(C(N)=O)c2c3ccc(C(C)(C)O)cc3n(C(c3ccc(F)cc3)C3CCOCC3)c2c1 (single isomer, unassigned) [Example 220, 2-(Dimethyl-1,2-oxazol-4-yl)-9-[(4-fluorophenyl)(oxan-4-yl)methyl]-7-(2-hydroxypropan-2-yl)-9H-carbazole-4-carboxamide]"
16,< 0.05,"Cc1noc(C)c1-c1cc(C(N)=O)c2c3ccc(C(C)(C)O)c(F)c3n(C(CCC(F)(F)F)c3ccccc3)c2c1 (single isomer, unassigned) [Example 230, 2-(dimethyl-1,2-oxazol-4-yl)-8-fluoro-7-(2-hydroxypropan-2-yl)-9-[4,4,4-trifluoro-1-phenylbutyl]-9H-carbazole-4-carboxamide]"
17,< 0.05,CNC(=O)c1cc(-c2c(C)noc2C)cc2c1c1cc(C(=O)N3CC(F)C3)ccc1n2CC1CCC1 [Example 114]
18,< 0.05,Cc1noc(C)c1-c1cc(C(N)=O)c2c3cc(C(=O)N4CCC(CO)CC4)ccc3n(Cc3ccccc3)c2c1 [Example 68]
19,< 7.5,"CCNC(=O)c1cc(-c2c(C)noc2C)cc2[nH]c3ccc(N4CCCOC4=O)cc3c12 [Example 154, 2-(3,5-dimethyl-4-isoxazolyl)-N-ethyl-6-(2-oxo-1,3-oxazinan-3-yl)-9H-carbazole-4-carboxamide]"
20,< 0.05,"Cc1noc(C)c1-c1cc(C(N)=O)c2c3cc(NS(C)(=O)=O)ccc3n(Cc3ccccc3)c2c1 [Example 143, 9-benzyl-2-(3,5-dimethyl-4-isoxazolyl)-6-(methylsulfonamido)-9H-carbazole-4-carboxamide]"
21,< 0.05,"Cc1noc(C)c1-c1cc(C(N)=O)c2c3cc(N(CCO)CCO)ccc3n(Cc3ccccc3)c2c1 [Example 140, 9-benzyl-6-(bis(2-hydroxyethyl)amino)-2-(3,5-dimethyl-4-isoxazolyl)-9H-carbazole-4-carboxamide]"

row,IC50 [µM],SMILES
1,< 0.05,"CON(C)C(=O)c1ccc2c3c(C(N)=O)cc(-c4c(C)noc4C)cc3n(Cc3ccccc3)c2c1 [Example 189, 9-Benzyl-7-(3,5-dimethyl-4-isoxazolyl)-N˜2˜-methoxy-N˜2˜-methyl-9H-carbazole-2,5-dicarboxamide]"
2,< 0.05,Cc1noc(C)c1-c1cc(C(N)=O)c2c3cc(C(=O)N4CCC(F)(F)C4)ccc3n(Cc3ccccc3)c2c1 [Example 61]
3,< 0.5,COc1ccccc1Cn1c2ccc(C(=O)N3CC(C)OC(C)C3)cc2c2ccc(-c3c(C)noc3C)cc21 (stereo not drawn) [Example 15]
4,< 0.05,Cc1noc(C)c1-c1cc(C(N)=O)c2c3cc(C(=O)N4CC(C)OC(C)C4)ccc3n(Cc3nccs3)c2c1 (stereo not drawn) [Example 30]
5,< 0.05,"Cc1noc(C)c1-c1cc(C#N)c2c3ccc(C(=O)O)cc3n(Cc3ccccc3)c2c1 [Example 186, 9-Benzyl-5-cyano-7-(3,5-dimethyl-4-isoxazolyl)-9H-carbazole-2-carboxylic acid]"
6,< 0.05,Cc1noc(C)c1-c1cc(C(N)=O)c2c3cc(C(=O)N4CC(C)OC(C)C4)ccc3n(Cc3ccccc3Cl)c2c1 (stereo not drawn) [Example 33]
7,< 0.05,"CCNC(=O)c1cc(-c2c(C)noc2C)cc2c1c1cc(C(=O)N3CC(F)C3)ccc1n2Cc1ccc(F)cc1 [Example 126, 2-(3,5-dimethyl-4-isoxazolyl)-N-ethyl-6-((3-fluoro-1-azetidinyl)carbonyl)-9-(4-fluorobenzyl)-9H-carbazole-4-carboxamide]"
8,< 0.05,Cc1noc(C)c1-c1cc(C(N)=O)c2c3cc(C(=O)N4CC(F)C4)ccc3n(C(C)c3ccccc3C(F)(F)F)c2c1 (stereo not drawn) [Example 89]
9,< 0.05,"Cc1noc(C)c1-c1cc(C(N)=O)c2c3cc(N4CCOC4=O)ccc3n(Cc3ccc(Cl)cc3)c2c1 [Example 162, 9-(4-chlorobenzyl)-2-(3,5-dimethyl-4-isoxazolyl)-6-(2-oxo-1,3-oxazolidin-3-yl)-9H-carbazole-4-carboxamide]"
10,< 0.05,Cc1noc(C)c1-c1cc(C(N)=O)c2c3cc(C(=O)N4CCC(O)CC4)ccc3n(Cc3ccccc3)c2c1 [Example 67]
11,< 0.5,"CNC(=O)c1cc(-c2c(C)noc2C)cc2[nH]c3ccc(N4CCCOC4=O)cc3c12 [Example 168, 2-(3,5-dimethyl-4-isoxazolyl)-N-methyl-6-(2-oxo-1,3-oxazinan-3-yl)-9H-carbazole-4-carboxamide]"
12,< 0.5,"Cc1noc(C)c1-c1cc(C(N)=O)c2c(c1)[nH]c1ccc(C(=O)N3C[C@@H](C)O[C@@H](C)C3)cc12 [Example 25, 2-(3,5-dimethyl-4-isoxazolyl)-6-((cis-2,6-dimethyl-4-morpholinyl)carbonyl)-9H-carbazole-4-carboxamide]"
13,< 0.05,CNC(=O)c1cc(-c2c(C)noc2C)cc2c1c1cc(C(=O)N3CC(F)C3)ccc1n2Cc1cccc(F)c1 [Example 104]
14,< 0.05,"Cc1nnn(C)c1-c1cc(C(N)=O)c2c3ccc(C(C)(C)O)cc3n(C(c3ccccc3)C3CCOCC3)c2c1 (single isomer, unassigned) [Example 233, 2-(1,4-Dimethyl-1H-1,2,3-triazol-5-yl)-7-(2-hydroxypropan-2-yl)-9-(phenyl(tetrahydro-2H-pyran-4-yl)methyl)-9H-carbazole-4-carboxamide]"
15,< 0.05,Cc1noc(C)c1-c1cc(C(N)=O)c2c3cc(C(=O)N4CC(C)OC(C)C4)ccc3n(Cc3ccccc3F)c2c1 (stereo not drawn) [Example 31]
16,< 0.05,Cc1noc(C)c1-c1cc(C(N)=O)c2c3cc(C(=O)N4CCO[C@H](C)C4)ccc3n(Cc3ccccc3)c2c1 [Example 62]
17,< 0.05,Cc1noc(C)c1-c1cc(C(N)=O)c2c3cc(C(=O)N4CCC(F)C4)ccc3n(Cc3cccc(F)c3)c2c1 (stereo not drawn) [Example 81]
18,< 0.05,Cc1noc(C)c1-c1cc(C(N)=O)c2c3cc(C(=O)N4CC(F)C4)ccc3n(C(C)c3ccc(F)cc3)c2c1 (stereo not drawn) [Example 91]
19,< 0.05,CNC(=O)c1cc(-c2c(C)noc2C)cc2c1c1cc(C(=O)N3CC(F)C3)ccc1n2Cc1ccc(Cl)c(F)c1 [Example 109]
20,< 0.5,"Cc1noc(C)c1-c1cc(C(=O)N(C)C)c2c3cc(C(=O)N4CC(F)(F)C4)ccc3n(C(C)c3ccccc3)c2c1 (stereo not drawn) [Example 120, 6-((3,3-difluoro-1-azetidinyl)carbonyl)-2-(3,5-dimethyl-4-isoxazolyl)-N,N-dimethyl-9-(1-phenylethyl)-9H-carbazole-4-carboxamide]"
21,< 0.05,Cc1noc(C)c1-c1cc(C(N)=O)c2c3cc(C(=O)N4COCC4(C)C)ccc3n(Cc3ccccc3)c2c1 [Example 77]
